Test results published in ChEMBL document CHEMBL1201862, “PubChem BioAssay data set” (2004).
The source made the active and inactive calls.

How the values were obtained:
INS1 = test: beta cell apoptosis inhibitors, cytokine rescue, dose response, luminescence, retest (AID 449756); format: functional, cell-based; conditions: Rattus norvegicus;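 note: cell death triggered by IL-1 beta plus TNF-alpha plus IFN-gamma mixture; protective hits raise ATP signal compared with cytokine alone wells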
HEK293 = test: inhibitors of LMP1-driven NF-kB reporter, dose response, cell-based, HEK293, luciferase, cherry-pick (AID 588343); format: functional; conditions: Homo sapiens
[1] = A Cell Based Secondary Assay To Explore Cytotoxicity of Compounds that Sensitize Mycobacterium Tuberculosis to Beta-Lactam Antibiotics.; format: functional
Leucine aminopeptidase = target: T1, Leucine aminopeptidase (Plasmodium falciparum 3D7, UniProt Q8IL11); test: P. falciparum M17LAP inhibitors, primary screen, biochemical, fluorogenic H-Leu-NHMec substrate, 1536-well (AID 1619); format: functional
T1 sequence (Q8IL11 whole entry): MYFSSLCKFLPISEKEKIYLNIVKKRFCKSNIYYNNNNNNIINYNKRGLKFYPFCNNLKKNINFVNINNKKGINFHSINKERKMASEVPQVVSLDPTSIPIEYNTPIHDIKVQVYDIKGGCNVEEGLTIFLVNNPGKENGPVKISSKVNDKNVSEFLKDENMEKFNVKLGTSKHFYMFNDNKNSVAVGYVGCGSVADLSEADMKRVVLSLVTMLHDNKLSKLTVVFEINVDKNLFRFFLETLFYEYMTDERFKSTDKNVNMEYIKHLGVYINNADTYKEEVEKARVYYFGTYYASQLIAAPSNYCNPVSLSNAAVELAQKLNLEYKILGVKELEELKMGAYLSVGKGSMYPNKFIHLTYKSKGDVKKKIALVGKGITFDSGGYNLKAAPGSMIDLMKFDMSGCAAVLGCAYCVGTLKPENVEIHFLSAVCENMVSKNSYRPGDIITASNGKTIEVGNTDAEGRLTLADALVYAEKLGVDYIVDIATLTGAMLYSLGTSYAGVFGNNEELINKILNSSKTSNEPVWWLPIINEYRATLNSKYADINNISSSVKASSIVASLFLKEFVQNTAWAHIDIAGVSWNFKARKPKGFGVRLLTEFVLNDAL

[2] = target: G-protein coupled receptor 55 (Homo sapiens, UniProt Q9Y2T6); test: GPR55 antagonists blocking LPI-driven arrestin recruitment, primary screen, imaging, U2OS, beta-arrestin-GFP, LPI agonist (AID 2013); format: functional;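 note: antagonist potency measured as reduced agonist-driven arrestin aggregation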
Chain of G-protein coupled receptor 55 (Q9Y2T6 whole entry): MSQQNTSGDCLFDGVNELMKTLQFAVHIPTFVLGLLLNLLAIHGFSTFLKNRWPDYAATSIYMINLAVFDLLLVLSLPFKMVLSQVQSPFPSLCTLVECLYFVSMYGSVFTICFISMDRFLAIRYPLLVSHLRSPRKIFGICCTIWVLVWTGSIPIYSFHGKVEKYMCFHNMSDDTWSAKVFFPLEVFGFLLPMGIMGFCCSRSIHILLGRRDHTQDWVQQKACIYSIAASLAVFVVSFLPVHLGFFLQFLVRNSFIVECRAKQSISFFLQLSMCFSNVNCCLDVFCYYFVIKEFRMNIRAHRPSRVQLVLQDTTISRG

Melanocortin receptor 4 = Melanocortin receptor 4 (Homo sapiens, UniProt P32245); format: functional, cell-based;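 note: Cell-based assay with luminescence read-out, confirmatory dose-response testing for agonist activity of biased ligands at MC4R; human U2OS cells with tagged receptor and beta-arrestin; potency of agonists that increase receptor coupling to beta-arrestin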
Chain of Melanocortin receptor 4 (P32245 whole entry, the tested form may be a part): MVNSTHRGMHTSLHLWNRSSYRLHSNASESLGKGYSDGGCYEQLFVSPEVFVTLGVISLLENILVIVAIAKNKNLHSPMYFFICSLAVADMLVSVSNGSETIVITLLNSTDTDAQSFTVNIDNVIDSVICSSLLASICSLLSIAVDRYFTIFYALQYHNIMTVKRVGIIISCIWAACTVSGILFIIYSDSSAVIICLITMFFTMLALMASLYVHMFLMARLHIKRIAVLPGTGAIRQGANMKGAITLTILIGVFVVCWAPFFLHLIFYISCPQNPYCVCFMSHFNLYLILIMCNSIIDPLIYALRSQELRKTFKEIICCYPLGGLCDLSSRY

[3] = target: T2, Carboxy-terminal domain RNA polymerase II polypeptide A small phosphatase 1 (Homo sapiens, UniProt Q9GZU7); test: inhibitors of CTDSP1, concentration-response testing, biochemical assay, absorbance-based, actives from ultra-high-throughput screening (AID 540297); format: functional
T2 sequence (Q9GZU7 whole entry): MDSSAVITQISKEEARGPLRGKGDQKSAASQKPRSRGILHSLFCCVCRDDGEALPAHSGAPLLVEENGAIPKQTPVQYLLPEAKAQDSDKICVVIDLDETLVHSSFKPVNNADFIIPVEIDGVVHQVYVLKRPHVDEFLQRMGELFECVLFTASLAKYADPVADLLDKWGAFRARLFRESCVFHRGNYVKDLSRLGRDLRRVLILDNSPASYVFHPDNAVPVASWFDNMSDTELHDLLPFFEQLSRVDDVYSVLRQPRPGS

Large T antigen = Large T antigen (Simian virus 40, UniProt P03070); format: functional, Betapolyomavirus macacae;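 note: Confirmatory-stage PubChem screen for compounds that inhibit SV40 T antigen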
Chain of Large T antigen (P03070 whole entry): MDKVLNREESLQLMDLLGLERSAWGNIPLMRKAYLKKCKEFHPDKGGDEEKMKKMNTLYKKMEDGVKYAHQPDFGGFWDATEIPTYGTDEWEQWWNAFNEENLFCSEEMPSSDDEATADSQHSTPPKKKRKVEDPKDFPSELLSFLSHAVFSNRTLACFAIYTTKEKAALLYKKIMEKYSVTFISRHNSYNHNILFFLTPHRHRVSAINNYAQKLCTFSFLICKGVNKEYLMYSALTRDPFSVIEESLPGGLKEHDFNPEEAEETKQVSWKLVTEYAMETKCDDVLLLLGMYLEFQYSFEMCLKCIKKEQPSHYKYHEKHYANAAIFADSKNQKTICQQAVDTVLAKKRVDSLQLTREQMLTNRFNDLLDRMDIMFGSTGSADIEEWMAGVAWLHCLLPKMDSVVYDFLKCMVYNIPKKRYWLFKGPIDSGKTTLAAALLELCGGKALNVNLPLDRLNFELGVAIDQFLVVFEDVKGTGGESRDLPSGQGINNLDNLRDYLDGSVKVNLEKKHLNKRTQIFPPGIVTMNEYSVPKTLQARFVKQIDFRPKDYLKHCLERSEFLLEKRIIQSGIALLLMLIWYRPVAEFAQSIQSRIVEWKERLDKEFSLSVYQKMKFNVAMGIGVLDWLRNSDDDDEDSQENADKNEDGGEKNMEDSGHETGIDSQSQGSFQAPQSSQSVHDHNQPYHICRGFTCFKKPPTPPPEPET

[4] = target: Glucose-6-phosphate 1-dehydrogenase (Homo sapiens, UniProt P11413); test: human G6PD enzyme inhibitors, dose response, selectivity assay for P. falciparum G6PD inhibitor project, biochemical, fluorescence (AID 504792); format: functional
Chain of Glucose-6-phosphate 1-dehydrogenase (P11413 whole entry): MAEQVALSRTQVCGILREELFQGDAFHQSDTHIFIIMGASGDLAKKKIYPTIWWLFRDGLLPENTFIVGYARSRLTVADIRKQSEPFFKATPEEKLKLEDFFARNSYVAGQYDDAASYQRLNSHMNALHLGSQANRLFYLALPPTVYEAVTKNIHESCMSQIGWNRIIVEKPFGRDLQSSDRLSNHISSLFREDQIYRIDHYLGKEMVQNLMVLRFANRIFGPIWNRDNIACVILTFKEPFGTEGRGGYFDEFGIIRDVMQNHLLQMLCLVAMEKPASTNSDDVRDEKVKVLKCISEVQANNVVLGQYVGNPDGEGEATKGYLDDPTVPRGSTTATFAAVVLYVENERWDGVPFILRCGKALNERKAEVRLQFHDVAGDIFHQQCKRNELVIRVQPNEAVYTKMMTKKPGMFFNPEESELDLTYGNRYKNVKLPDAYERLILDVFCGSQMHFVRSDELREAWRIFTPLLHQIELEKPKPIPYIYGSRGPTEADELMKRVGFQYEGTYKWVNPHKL

[5] = HEK293 cell cytotoxicity, dose response, cytotoxicity control, plate reader, cherry-picked samples (AID 743446); format: functional, cell-based
[6] = target: Luciferin 4-monooxygenase (Photinus pyralis, UniProt P08659); test: firefly luciferase enzyme inhibitors, dose response, biochemical, luminescence (AID 1891)
Chain of Luciferin 4-monooxygenase (P08659 whole entry): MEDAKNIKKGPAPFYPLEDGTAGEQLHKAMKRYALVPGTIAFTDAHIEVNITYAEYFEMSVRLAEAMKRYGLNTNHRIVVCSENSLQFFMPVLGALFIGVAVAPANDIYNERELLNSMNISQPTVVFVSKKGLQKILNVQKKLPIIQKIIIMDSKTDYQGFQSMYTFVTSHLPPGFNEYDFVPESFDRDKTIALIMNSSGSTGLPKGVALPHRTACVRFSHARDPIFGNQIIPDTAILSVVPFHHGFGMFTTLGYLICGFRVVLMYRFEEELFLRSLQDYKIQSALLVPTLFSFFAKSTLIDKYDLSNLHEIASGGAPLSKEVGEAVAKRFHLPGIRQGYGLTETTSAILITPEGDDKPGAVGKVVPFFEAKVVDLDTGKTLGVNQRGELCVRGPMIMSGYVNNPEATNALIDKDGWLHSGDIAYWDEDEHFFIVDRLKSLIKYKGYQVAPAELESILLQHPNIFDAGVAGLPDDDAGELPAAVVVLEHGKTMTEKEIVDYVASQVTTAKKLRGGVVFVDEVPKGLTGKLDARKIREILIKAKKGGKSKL

[7] = Luminescence Cell-Based Dose Confirmation HTS to Identify Inhibitors of Platelet Dense Granule Release. [Related pubchem assays: 1663 (Primary HTS), 1678 (Summary of Project)]; format: functional
[8] = MC4R antagonists, dose response, counter-screen for LGR2 antagonist project, cell-based, plate reader, cherry pick (AID 743444); format: functional;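 note: transfected HEK 293 cells stimulated with alpha-MSH peptide; potency of inhibitors of the alpha-MSH evoked signal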
[9] = LGR2 antagonists, dose response, cell-based, HEK293, CRE-luciferase reporter, cherry pick, set 2 (AID 743343); format: functional;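 note: transfected cells were stimulated with diluted bursicon conditioned medium after compound addition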
Protein skinhead-1 = target: T3, Protein skinhead-1 (Caenorhabditis elegans, UniProt P34707); format: functional
T3 sequence (P34707 whole entry): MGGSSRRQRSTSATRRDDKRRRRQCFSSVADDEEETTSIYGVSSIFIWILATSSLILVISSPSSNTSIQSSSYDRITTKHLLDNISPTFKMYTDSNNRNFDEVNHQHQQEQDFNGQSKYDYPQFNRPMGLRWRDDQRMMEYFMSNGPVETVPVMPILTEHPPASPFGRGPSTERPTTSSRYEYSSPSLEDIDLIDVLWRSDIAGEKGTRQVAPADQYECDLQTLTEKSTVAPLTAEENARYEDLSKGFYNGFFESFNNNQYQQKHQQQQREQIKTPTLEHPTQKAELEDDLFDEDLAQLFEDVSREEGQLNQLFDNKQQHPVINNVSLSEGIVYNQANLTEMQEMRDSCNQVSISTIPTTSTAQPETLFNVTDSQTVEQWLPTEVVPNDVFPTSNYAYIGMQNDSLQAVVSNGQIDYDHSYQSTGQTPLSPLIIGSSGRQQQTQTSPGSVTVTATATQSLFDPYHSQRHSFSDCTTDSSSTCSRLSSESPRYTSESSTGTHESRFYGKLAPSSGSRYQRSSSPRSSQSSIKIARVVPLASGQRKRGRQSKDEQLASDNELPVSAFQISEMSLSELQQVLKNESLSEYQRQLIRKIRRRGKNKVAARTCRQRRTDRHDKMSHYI

[10] = A549 cell cytotoxicity, dose response, cytotoxicity control, plate reader, cherry-pick, antagonist series (AID 743412); format: functional, cell-based
[11] = target: T4, Heat shock factor protein 1 (Mus musculus, UniProt P38532); test: HSF1 potentiators in luciferase reporter cells, confirmation, cell-based, NIH3T3, luminescence, dose retest (AID 435004); format: functional;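 note: stress induced by proteasome inhibitor MG132 added 30 min after compound; luciferase reporter driven by HSF1 response element in NIH3T3 cells; actives raise luminescence as potentiators of the MG132 stress response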
T4 sequence (P38532 whole entry): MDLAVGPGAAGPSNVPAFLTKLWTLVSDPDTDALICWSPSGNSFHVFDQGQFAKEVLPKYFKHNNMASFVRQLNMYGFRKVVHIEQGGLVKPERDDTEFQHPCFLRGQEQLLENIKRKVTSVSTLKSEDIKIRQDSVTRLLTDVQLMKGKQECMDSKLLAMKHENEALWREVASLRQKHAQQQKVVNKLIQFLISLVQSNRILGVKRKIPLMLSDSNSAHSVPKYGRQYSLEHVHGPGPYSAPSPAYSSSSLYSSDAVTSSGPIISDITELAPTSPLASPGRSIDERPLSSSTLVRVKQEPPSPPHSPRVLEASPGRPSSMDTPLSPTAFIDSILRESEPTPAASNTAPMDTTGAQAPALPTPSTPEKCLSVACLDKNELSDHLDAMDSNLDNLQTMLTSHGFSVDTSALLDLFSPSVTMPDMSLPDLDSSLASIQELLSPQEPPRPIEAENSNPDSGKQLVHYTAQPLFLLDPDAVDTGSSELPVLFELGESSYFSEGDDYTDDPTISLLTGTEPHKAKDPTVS

O=C(Nc1ccc(Cl)cc1)Nc1nnc(CSCc2ccc(Cl)cc2)s1
AC50 (INS1): 3.99 µM (active)
AC50 (HEK293): 3.92 µM (active)

O=C(c1ccc(-c2ccc(Cl)cc2)o1)N1CCN(S(=O)(=O)c2cccs2)CC1
CC50 [1]: 26 µM (active)

CCCCc1ccc(NC(=O)N[C@H](C(=O)O)C(C)C)cc1
IC50 (Leucine aminopeptidase): 7.04 µM (active)

N#C/C(=C\c1c[nH]nc1-c1ccccc1Br)C(=O)O
IC50 [2]: 3.58 µM (active)

O=C(Nc1cccc(NC(=S)NC(=O)c2cccs2)c1)c1ccccc1
EC50 (Melanocortin receptor 4): > 89.2 µM (inactive)

C[N+]1(CCCCSc2ccc(O)cc2)CCCCC1
IC50 [3]: 6.89 µM (active)
IC50 (Large T antigen): 12.1 µM (active)

COc1cc(NCc2ccccc2)c2ncn(C(C)C)c2c1
IC50 [4]: > 80 µM (inactive)

COc1ccc(-c2nc(-c3cccs3)no2)cc1
AC50 (HEK293): 1.7 µM (active)
AC50 [5]: > 52 µM (inactive)
EC50 [6]: 1.59 µM (active)
EC50 [7]: 18.7 µM (active)
AC50 [8]: 3.02 µM (active)
AC50 [9]: 2.18 µM (active)
IC50 (Protein skinhead-1): > 100 µM (inactive)

CCOc1ccc(-c2ccc(SCC)nn2)cc1
AC50 [5]: > 52 µM (inactive)
AC50 [10]: > 52 µM (inactive)
AC50 [8]: 8.8 µM (active)
AC50 [9]: 7.12 µM (active)

COc1ccc(C2c3ccc(O)cc3Oc3ncn(Cc4ccco4)c(=N)c32)cc1 (centres undefined)
EC50 [11]: > 260 µM (inactive)
IC50 [2]: 1.41 µM (active)

COc1ccc(Cl)cc1NC(=O)NNC(=O)c1ccccn1
CC50 [1]: 28.8 µM (active)

O=C(CSc1nc(-c2ccccc2)c(-c2ccccc2)[nH]1)N1CCN(S(=O)(=O)c2ccccc2)CC1
IC50 [2]: 3.67 µM (active)
